Peptide text beside a SMILES is read from it. * marks the point of attachment. Palmitoyl = CCCCCCCCCCCCCCCC(=O)*; X1 = NCOCCOCCOCCCN*
How the values were obtained:
papain [1] = molecular target: T1, papain (Carica papaya, UniProt P00784); assay: Peptide degradation by proteases (Example 8b, PH-26 peptide); assay type: in vitro ADME
T1 sequence (P00784 134-345): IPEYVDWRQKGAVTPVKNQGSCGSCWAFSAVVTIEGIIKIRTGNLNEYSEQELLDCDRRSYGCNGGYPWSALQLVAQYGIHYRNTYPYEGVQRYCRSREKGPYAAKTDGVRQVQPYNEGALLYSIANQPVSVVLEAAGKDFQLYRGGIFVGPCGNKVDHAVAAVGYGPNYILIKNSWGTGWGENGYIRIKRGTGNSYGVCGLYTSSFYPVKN
Experimental: b) 20 mg of papain were added to the formulation of Comparative example 6c, and 1.5 mg of papain were added to a solution of 40 mg of the formulation of Example 1c in 1.0 mL of PBS buffer. Both samples were incubated at 40° C. Aliquots were taken at study times 0 h, 0.17 h, 0.3 h and 24 h, after the addition of papain, centrifuged at 1400 rpm for 1 min, and the supernatant was filtered using a 0.45 μm filter and analyzed by HPLC.
(§1) HPLC analysis was carried out in a Waters 996 instrument with a diode array detector equipped with Waters 2695 separations module and Millenium software; an Xbridge BEH130 C18 4.6×100 mm 3.5 μm reversed phase column by Waters was used. UV detection was performed at 220 nm and a mobile phase B gradient of 5 to 100% was performed for 8 minutes at 1.0 ml/min of flow. Under these conditions, the retention time of the peptide of formula (I) wherein R is palmitoyl (Matrixyl®, PP-4) is 6.4 min. Mobile phase A: 0.045% TFA/H2O, mobile phase B: 0.036% TFA/acetonitrile.

papain [2] = molecular target: T1, papain; assay: Peptide degradation by proteases (Example 8a, PP-4 peptide); assay type: in vitro ADME
Experimental: a) 5 mg of each of the formulations of Example 1b and Comparative example 6b were incubated at 40° C. with 20 mg of papain. Samples were taken at study times 0 h, 0.3 h, 0.6 h, and 5 h after the addition of papain, centrifuged at 1400 rpm for 1 min, and the supernatant was filtered using a 0.45 μm filter and analyzed by HPLC.
as §1

SMILES	degradation with papain (in words) (papain [1])	degradation with papain (in words) (papain [2])
CCCCCCCCCCCCCCCC(=O)N[C@@H](CCCCN)C(=O)N[C@@H](C)C(=O)N[C@@H](CCC(N)=O)C(=O)N[C@@H](CCCCN)C(=O)N[C@@H](CCCNC(=N)N)C(=O)N[C@@H](Cc1ccccc1)C(=O)NCCCOCCOCCOCN [PH-26 peptide, R1-L-Lys-L-Ala-L-Gln-L-Lys-L-Arg-L-Phe-NH—(CH2)3—O—(CH2)2—O—(CH2)2—O—(CH2)—NH2] (Palmitoyl-KAQKRF-X1; N-terminus and C-terminus assumed)	nearly completely degraded	
CCCCCCCCCCCCCCCC(=O)N[C@@H](CCCCN)C(=O)N[C@H](C(=O)N[C@H](C(=O)N[C@@H](CCCCN)C(=O)N[C@@H](CO)C(=O)O)[C@@H](C)O)[C@@H](C)O [PP-4, Palm-L-Lys-L-Thr-L-Thr-L-Lys-L-Ser-OH] (Palmitoyl-KTTKS-OH)		completely degraded

Reference: patent US20210121376A1, “PEPTIDES ENCAPSULATED IN LECITHIN AND ALGINATE” (INFINITEC ACTIVOS, S.L., priority 2018, published 2021)
